# Experimental data from patent publication US8999970B2, “Administration of an anti-obesity compound to individuals with renal impairment” (Arena Pharmaceuticals, Inc., priority 2010, dated 2015).
# Entries after “also recorded” stand apart in the source; their conditions may differ.
# Assay: Dynamic moisture (vapor) sorption of Form III
# Type: physicochemical
smiles,measurement,setting,value
"C[C@H]1CNCCc2ccc(Cl)cc21.C[C@H]1CNCCc2ccc(Cl)cc21.Cl.Cl.O [(R)-8-chloro-1-methyl-2,3,4,5-tetrahydro-1H-3-benzazepine hydrochloride hemihydrate, Form III]",Hygroscopicity (DMS / DVS),,substantially non-hygroscopic; also recorded: FIG. 9: non-hygroscopic
same,Water adsorbed,90% RH,less than 0.5 wt %
